This note sets out measurements from US11485742B2, “2-azaspiro[3.4]octane derivatives as M4 agonists” (NOVARTIS AG, priority 2019, dated 2022).

Experiment [1] deals with T1, human cloned CHRM4 receptor (Homo sapiens, UniProt P08173).
T1 construct: expressed in transfected cells; host or cells: CHO-K1 (M4_CHO)
T1 sequence (P08173 1-479): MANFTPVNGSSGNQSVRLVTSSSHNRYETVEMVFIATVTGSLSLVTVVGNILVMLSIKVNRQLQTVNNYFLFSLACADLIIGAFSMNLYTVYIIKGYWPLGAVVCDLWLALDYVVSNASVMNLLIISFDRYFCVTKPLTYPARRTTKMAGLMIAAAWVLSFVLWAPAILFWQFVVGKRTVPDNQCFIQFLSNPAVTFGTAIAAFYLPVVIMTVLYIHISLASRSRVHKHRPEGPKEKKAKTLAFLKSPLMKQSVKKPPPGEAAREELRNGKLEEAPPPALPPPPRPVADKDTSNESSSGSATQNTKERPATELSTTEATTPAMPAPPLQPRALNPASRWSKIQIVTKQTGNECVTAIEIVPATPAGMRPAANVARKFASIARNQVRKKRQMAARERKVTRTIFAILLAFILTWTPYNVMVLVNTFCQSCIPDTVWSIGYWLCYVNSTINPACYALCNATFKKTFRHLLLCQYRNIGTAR
As to the kind of experiment: CHRM4 Ca++ Flux Assay (M4_CHO cells, agonist mode). The class given is cell-based. The following applies: for M4 FDSS PA % / Emax: Percent Activity (PA); for EC50: geometric mean if tested more than once, read-out: M4 FDSS EC50; for Emax: read-out: M4 FDSS PA %. How it is done:
(§1) The above examples were characterized by measuring the intracellular mobilization of Ca^++ ions caused by signaling events mediated by the receptor. The Intra-cellular Calcium flux levels were captured by the highly sensitive Ca^++ indicator, Calcium Assay Kit (BD Biosciences; Catalog Number 640178. The fluorescent activity from all receptors were monitored by the fluorescent imager, FDSS 7000EX (Hamamatsu) over a span of 3 minutes. The change in Calcium flux was readily captured upon activation with the muscarinic orthosteric agonist, Carbachol.
CHO-K1 cells stably expressing the human cloned CHRM4 receptor (M4_CHO cells) were grown and maintained in a monolayer culture with F12/HAM (Life Technologies) supplemented with 10% Fetal Bovine Serum, 1X Pen-Strep, and 0.4 mg/mL Geneticin in a humidified atmosphere (5% CO2) at 37° C. The cultures were grown to 80-90% confluency in T150 flasks (Corning) and washed with 1×DPBS then lifted with 0.05% Trypsin (Life Technologies). The cells were harvested in growth media then spun (1K rpm, 3 minutes) and cryopreserved using Recovery Cell Culture Freezing Media (Gibco Technologies). Cells were stored in liquid nitrogen and thawed a day before the assay.
Prior to the day of the assay, stable M4_CHO cells were thawed and plated on 384 well black walled clear bottom TC treated plates (Greiner Cat #781091) at 12K cells/well using F12/HAM Media supplemented with 10% FBS (Life Technologies) and kept overnight in a humidified atmosphere (5% CO2) at 37° C. The next day, cells were loaded with 20 μL Ca^++ dye (BD Biosciences) using Loading Buffer (HBSS +Ca/+Mg, 20 mM HEPES, 2.5 mM Probenecid) and placed back in cell incubator for a minimum of 1 hour. After incubation, the dye was replaced with 45 μL Assay Buffer (HBSS −Ca/−Mg, 20 mM HEPES, 2.5 mM Probenecid) supplemented with 20 μM ATP (Sigma Aldrich) and kept at room temperature in the dark for 60 minutes before running on a cell imager. The FDSS 7000EX (Hamamatsu) was used to capture Ca^++ traces for a span of 3 minutes from cells treated with 11 point dose of compound in triplicate in order to generate dose response curves in agonist mode. All compounds were serially diluted in DMSO then prepared in Assay Buffer for Ca^++ flux studies. The dose response curves were generated from the average of triplicate wells obtained from each data point and used a non-linear regression of four parameter dose response algorithm. The Percent Activity (PA) was measured to EC100 of Carbachol.
(§2) If an Example was tested more than once in an assay, then the values below represent the geometric mean of the results from each independent experiment.

Experiment [2] has as its target T2, human cloned CHRM3 receptor (Homo sapiens, UniProt P20309).
T2 construct: expressed in transfected cells; host or cells: CHO-K1 (M3_CHO)
As to the kind of experiment: CHRM3 Ca++ Flux Assay (M3_CHO cells, agonist mode). In kind it is cell-based. The following applies: for M3 FDSS PA % / Emax: Percent Activity (PA) measured to EC100 of Carbachol; for EC50: agonist mode, geometric mean if tested more than once, read-out: M3 FDSS EC50; for Emax: read-out: M3 FDSS PA %. How it is done: as §1
CHO-K1 cells stably expressing the human cloned CHRM3 receptor (M3_CHO cells) were grown and maintained in a monolayer culture with F12/HAM (Life Technologies) supplemented with 10% Fetal Bovine Serum, IX Pen-Strep, and 0.4 mg/mL Geneticin in a humidified atmosphere (5% CO2) at 37° C. The cultures were grown to 80-90% confluency in T150 flasks (Corning) and washed with 1×DPBS and lifted with 0.05% Trypsin (Life Technologies). The cells were then spun (1K rpm, 3 minutes) and frozen using Recovery Cell Culture Freezing Media (Gibco Technologies). Cells were stored in liquid nitrogen and thawed a day before the assay. A similar procedure was used for cells stably expressing the human cloned CHRM5 receptor (M5_CHO).
Prior to the day of the assay, stable M3_CHO or M5_CHO cells were thawed and plated on Greiner 384 well black TC treated plates at 12K cells/well in F12/DMEM supplemented with 10% FBS (Hyclone) and kept overnight in a humidified atmosphere (5% CO2) at 37° C. The next day, cells were loaded with Ca^++ dye (BD Biosciences) using Loading Buffer (HBSS +Ca/+Mg, 20 mM HEPES, 2.5 mM Probenecid) and placed back in cell incubator for a minimum of 1 hour. After incubation, the dye was replaced with Assay Buffer (HBSS −Ca/−Mg, 20 mM HEPES, 2.5 mM Probenecid) and kept at room temperature in the dark before running on cell imager. The FDSS 7000EX (Hamamatsu) was used to acquire Ca^+− traces from cells treated with 11 point dose response of compounds in triplicate in order to generate dose response curves in agonist mode. All compounds were serially diluted in DMSO then prepared in Assay Buffer for Ca^++ flux studies. The dose response curves were generated from the average of triplicate wells obtained from each data point and used a non-linear regression of four parameter dose response algorithm. The Percent Activity (PA) was measured to EC100 of Carbachol.
as §2

Where only a bound is given, the exact number is not on record here.

T2 sequence (P20309 whole entry): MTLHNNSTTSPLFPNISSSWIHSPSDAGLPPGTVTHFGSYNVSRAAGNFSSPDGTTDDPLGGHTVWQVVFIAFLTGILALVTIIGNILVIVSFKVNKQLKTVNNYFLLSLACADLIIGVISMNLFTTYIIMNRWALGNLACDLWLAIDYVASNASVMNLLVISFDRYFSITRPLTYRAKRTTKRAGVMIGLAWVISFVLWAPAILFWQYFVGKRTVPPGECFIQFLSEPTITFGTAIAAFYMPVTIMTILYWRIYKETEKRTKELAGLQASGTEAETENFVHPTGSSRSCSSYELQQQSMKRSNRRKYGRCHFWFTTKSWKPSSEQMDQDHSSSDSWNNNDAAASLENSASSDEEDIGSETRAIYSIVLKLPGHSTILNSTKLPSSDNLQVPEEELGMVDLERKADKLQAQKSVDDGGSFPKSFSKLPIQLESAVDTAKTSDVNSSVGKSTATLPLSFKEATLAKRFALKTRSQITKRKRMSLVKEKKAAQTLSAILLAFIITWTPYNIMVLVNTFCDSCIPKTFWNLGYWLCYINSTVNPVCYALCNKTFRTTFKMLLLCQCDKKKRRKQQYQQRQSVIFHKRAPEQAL

One may read the EC50 as the concentration needed to bring the measured effect to its halfway point. Turning to `C[C@H](Oc1ccc(F)cc1C1CCN([C@@H]2COC3(C2)CN(c2nnco2)C3)CC1)C1CCOCC1` [Example 2X, (S)-7-(4-(5-fluoro-2-((S)-1-(tetrahydro-2H-pyran-4-yl)ethoxy)phenyl)piperidin-1-yl)-2-(1,3,4-oxadiazol-2-yl)-5-oxa-2-azaspiro[3.4]octane or(S)-7-(4-(5-fluoro-2-((R)-1-(tetrahydro-2H-pyran-4-yl)ethoxy)phenyl)piperidin-1-yl)-2-(1,3,4-oxadiazol-2-yl)-5-oxa-2-azaspiro[3.4]octane], in experiment [1], the “M4 FDSS PA %” value came to 40% and the concentration giving a half-maximal response (EC50) was determined as 1780 nM. In experiment [2], the “M3 FDSS PA %” value is given as 0% and the EC50 was above 25000 nM.

As for `Fc1ccc([C@H]2CCOC2)c(C2CCN([C@@H]3COC4(C3)CN(c3nnco3)C4)CC2)c1` (single isomer, unassigned) [Example 3E, (S)-7-(4-(5-fluoro-2-((R)-tetrahydrofuran-3-yl)phenyl)piperidin-1-yl)-2-(1,3,4-oxadiazol-2-yl)-5-oxa-2-azaspiro[3.4]octane or (S)-7-(4-(5-fluoro-2-((S)-tetrahydrofuran-3-yl)phenyl)piperidin-1-yl)-2-(1,3,4-oxadiazol-2-yl)-5-oxa-2-azaspiro[3.4]octane], in experiment [1], the “M4 FDSS PA %” value worked out at 86% and the EC50 came to 28 nM. In experiment [2], the “M3 FDSS PA %” value is listed as 0% and the concentration giving a half-maximal response (EC50) was above 25000 nM.

Regarding `Cc1nc(COc2ccccc2C2CCN([C@@H]3COC4(C3)CN(c3nncs3)C4)CC2)no1` [Example 5F, (S)-7-(4-(2-((5-methyl-1,2,4-oxadiazol-3-yl)methoxy)phenyl)piperidin-1-yl)-2-(1,3,4-thiadiazol-2-yl)-5-oxa-2-azaspiro[3.4]octane], the Emax was 90% in experiment [1] and 15% in experiment [2]. For the same molecule, the EC50 in experiment [1] was below 0.4 nM; in experiment [2], 11800 nM.

On to `Fc1ccc(O[C@H]2CCCOC2)c(C2CCN([C@@H]3COC4(C3)CN(c3nnco3)C4)CC2)c1` (single isomer, unassigned) [Example 2Q, (S)-7-(4-(5-fluoro-2-(((S)-tetrahydro-2H-pyran-3-yl)oxy)phenyl)piperidin-1-yl)-2-(1,3,4-oxadiazol-2-yl)-5-oxa-2-azaspiro[3.4]octane or (S)-7-(4-(5-fluoro-2-(((R)-tetrahydro-2H-pyran-3-yl)oxy)phenyl)piperidin-1-yl)-2-(1,3,4-oxadiazol-2-yl)-5-oxa-2-azaspiro[3.4]octane], for which, in experiment [1], the “M4 FDSS PA %” value amounted to 81% and the half-maximal effective concentration (EC50) was found to be 130 nM. Also, in experiment [2], the “M3 FDSS PA %” value is reported as 0% and the EC50 was above 25000 nM.

Turning to `Fc1ccc(OC2CC3(COC3)C2)c(C2CCN([C@@H]3COC4(C3)CN(c3ncco3)C4)CC2)c1` [Example 4G, (S)-7-(4-(2-((2-oxaspiro[3.3]heptan-6-yl)oxy)-5-fluorophenyl)piperidin-1-yl)-2-(oxazol-2-yl)-5-oxa-2-azaspiro[3.4]octane], in experiment [1], the Emax came out at 68% and the concentration giving a half-maximal response (EC50) worked out at 17 nM. In experiment [2], the Emax was 0% and the concentration for a half-maximal effect (EC50) was above 25000 nM.

`Fc1ccc(O[C@H]2CCOC2)c(C2CCN([C@@H]3COC4(C3)CN(c3nnco3)C4)CC2)c1` [Example 1H, (S)-7-(4-(5-fluoro-2-(((S)-tetrahydrofuran-3-yl)oxy)phenyl)piperidin-1-yl)-2-(1,3,4-oxadiazol-2-yl)-5-oxa-2-azaspiro[3.4]octane]: in experiment [1], the Emax worked out at 77% and the EC50 was determined as 34 nM. In experiment [2], the Emax was 0% and the EC50 is above 25000 nM.

For the molecule `CC(C)(O)[C@H]1C[C@@H](Oc2ccc(F)cc2C2CCN([C@@H]3COC4(C3)CN(c3ncco3)C4)CC2)C1` (single isomer, unassigned) [Example 4T, 2-((1R,3s)-3-(4-fluoro-2-(1-((S)-2-(oxazol-2-yl)-5-oxa-2-azaspiro[3.4]octan-7-yl)piperidin-4-yl)phenoxy)cyclobutyl)propan-2-ol or 2-((1S,3r)-3-(4-fluoro-2-(1-((S)-2-(oxazol-2-yl)-5-oxa-2-azaspiro[3.4]octan-7-yl)piperidin-4-yl)phenoxy)cyclobutyl)propan-2-ol], in experiment [1], the “M4 FDSS PA %” value was 63% and the concentration for a half-maximal effect (EC50) amounted to 25 nM. In experiment [2], the “M3 FDSS PA %” value was found to be 0% and the 50% effective concentration (EC50) was above 25000 nM.

As to `O[C@H]1CC[C@@H](c2ccc(F)cc2C2CCN([C@@H]3COC4(C3)CN(c3nnco3)C4)CC2)CC1` (single isomer, unassigned) [Example 3H, (1R,4s)-4-(2-(1-((S)-2-(1,3,4-oxadiazol-2-yl)-5-oxa-2-azaspiro[3.4]octan-7-yl)piperidin-4-yl)-4-fluorophenyl)cyclohexan-1-ol or (1S,4r)-4-(2-(1-((S)-2-(1,3,4-oxadiazol-2-yl)-5-oxa-2-azaspiro[3.4]octan-7-yl)piperidin-4-yl)-4-fluorophenyl)cyclohexan-1-ol], in experiment [1], the “M4 FDSS PA %” value was 83.2% and the concentration for a half-maximal effect (EC50) is 10 nM. Besides, in experiment [2], the “M3 FDSS PA %” value was determined as 20% and the EC50 worked out at 10700 nM.

With `Fc1ccc(OC2CCOCC2)c(C2CCN([C@@H]3COC4(C3)CN(c3ncco3)C4)CC2)c1` [Example 4E, (S)-7-(4-(5-fluoro-2-((tetrahydro-2H-pyran-4-yl)oxy)phenyl)piperidin-1-yl)-2-(oxazol-2-yl)-5-oxa-2-azaspiro[3.4]octane], in experiment [1], the Emax was found to be 81% and the EC50 worked out at 12 nM. In addition, in experiment [2], the Emax worked out at 0% and the 50% effective concentration (EC50) is above 25000 nM.

With `Fc1ccc(OC[C@@H]2COCCO2)c(C2CCN([C@@H]3COC4(C3)CN(c3nnco3)C4)CC2)c1` [Example 1F, (S)-7-(4-(2-(((S)-1,4-dioxan-2-yl)methoxy)-5-fluorophenyl)piperidin-1-yl)-2-(1,3,4-oxadiazol-2-yl)-5-oxa-2-azaspiro[3.4]octane], in experiment [1], the Emax came out at 78% and the EC50 was found to be 30 nM. In experiment [2], the Emax was 0% and the concentration for a half-maximal effect (EC50) is above 25000 nM.
